Data published in ChEMBL document CHEMBL1201862, “PubChem BioAssay data set” (2004).
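Each compound was tested at five concentrations against cells in 96-well plates for 48 hours. GI50 = concentration required for 50% inhibition of growth.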 Activity calls are given as the source filed them. Cut-off read from the data, not from the text of the source: active = GI50 up to about 1.1 µM and inactive = higher.

Tests used:
Test in all cases: DTP human tumour cell line panel, 48 h
HCC 2998 = system: HCC 2998
A549 = system: A549
SW-620 = system: SW-620
SNB-75 = system: SNB-75
Hs-578T = system: Hs-578T
A498 = system: A498
HCT-116 = system: HCT-116
SF-539 = system: SF-539
UACC-257 = system: UACC-257
SNB-19 = system: SNB-19
OVCAR-8 = system: OVCAR-8
KM12 = system: KM12
MOLT-4 = system: MOLT-4
DU-145 = system: DU-145
786-0 = system: 786-0
HOP-92 = system: HOP-92
TK-10 = system: TK-10
Malme-3M = system: Malme-3M
SK-OV-3 = system: SK-OV-3
HOP-62 = system: HOP-62

Measured: GI50

O=C(Nc1ccc(Cl)cc1)c1cc(S(=O)(=O)N2CCNNC2=O)c(S)cc1Cl
inactive: HCC 2998 > 100 µM | A549 > 100 µM | SW-620 > 100 µM | SNB-75 > 100 µM | Hs-578T > 100 µM | A498 > 100 µM | HCT-116 > 100 µM | SF-539 > 100 µM | UACC-257 > 100 µM | SNB-19 > 100 µM | OVCAR-8 > 100 µM | KM12 > 100 µM | MOLT-4 > 100 µM | DU-145 > 100 µM | 786-0 > 100 µM | HOP-92 28.8 µM | TK-10 52.5 µM | Malme-3M > 100 µM

Cc1c(S(=O)(=O)c2ccccc2)c(N)n(Cc2ccccc2)c1C
inactive: HCC 2998 > 100 µM | A549 > 100 µM | SW-620 > 100 µM | SNB-75 > 100 µM | Hs-578T 53.1 µM | A498 > 100 µM | HCT-116 > 100 µM | SF-539 53.1 µM | UACC-257 > 100 µM | SNB-19 > 100 µM | OVCAR-8 > 100 µM | KM12 > 100 µM | MOLT-4 > 100 µM | DU-145 > 100 µM | SK-OV-3 > 100 µM | 786-0 > 100 µM | HOP-92 > 100 µM | TK-10 > 100 µM | Malme-3M > 100 µM

O=C1O/C(=C(/Cl)c2c3ccccc3cc3ccccc23)c2ccccc21
inactive: HCC 2998 30.9 µM | A549 37.1 µM | SW-620 30.7 µM | SNB-75 4.75 µM | Hs-578T 23 µM | A498 27 µM | HCT-116 3.03 µM | SF-539 23.6 µM | HOP-62 29.1 µM | UACC-257 33.2 µM | SNB-19 20.3 µM | OVCAR-8 23.4 µM | KM12 4.02 µM | MOLT-4 7.53 µM | DU-145 45.4 µM | SK-OV-3 69.5 µM | 786-0 14.4 µM | HOP-92 21.8 µM | TK-10 32.8 µM | Malme-3M 48.1 µM

COc1ccc(/C=C2\CCC(CNc3ccc(OC)cc3)C2=O)cc1 (configuration not stated)
inactive: HCC 2998 21.2 µM | A549 36.4 µM | SW-620 3.5 µM | SNB-75 31.1 µM | Hs-578T 35.4 µM | A498 30.1 µM | HCT-116 11 µM | SF-539 20.4 µM | HOP-62 36.4 µM | UACC-257 17.5 µM | SNB-19 > 42.6 µM | OVCAR-8 17.7 µM | KM12 10.5 µM | DU-145 39.1 µM | SK-OV-3 > 100 µM | 786-0 9.51 µM | HOP-92 18.9 µM | TK-10 15.6 µM | Malme-3M 22.6 µM

COC(=O)c1ccc(CCc2cc(O)c(Br)cc2O)cc1
inactive: HCC 2998 17.7 µM | A549 19.5 µM | SW-620 15 µM | SNB-75 26.8 µM | Hs-578T 33.3 µM | A498 22.1 µM | HCT-116 5.38 µM | SF-539 8.3 µM | HOP-62 17.6 µM | UACC-257 15.5 µM | SNB-19 17.4 µM | OVCAR-8 16 µM | KM12 15.1 µM | MOLT-4 2.42 µM | DU-145 14.4 µM | SK-OV-3 25.4 µM | 786-0 14.4 µM | HOP-92 12.9 µM | TK-10 14.5 µM | Malme-3M 15.7 µM

Cc1nc2ccccc2n1Cc1nnc(-c2ccccc2)o1
inactive: HCC 2998 > 100 µM | A549 52.4 µM | SW-620 90.2 µM | SNB-75 46.3 µM | Hs-578T > 100 µM | A498 > 100 µM | HCT-116 46.2 µM | SF-539 27.2 µM | HOP-62 > 100 µM | UACC-257 > 100 µM | SNB-19 > 100 µM | OVCAR-8 > 100 µM | KM12 20.6 µM | MOLT-4 41.8 µM | DU-145 > 100 µM | SK-OV-3 > 100 µM | 786-0 38.7 µM | HOP-92 > 100 µM | TK-10 > 100 µM | Malme-3M > 100 µM

CON(C)C(=O)C(C)NC(=O)OC(C)(C)C (configuration not stated)
inactive: HCC 2998 > 100 µM | A549 > 100 µM | SW-620 > 100 µM | SNB-75 > 100 µM | Hs-578T > 100 µM | A498 > 100 µM | HCT-116 > 100 µM | SF-539 > 100 µM | HOP-62 > 100 µM | UACC-257 > 100 µM | SNB-19 > 100 µM | OVCAR-8 > 100 µM | KM12 > 100 µM | MOLT-4 > 100 µM | DU-145 > 100 µM | SK-OV-3 > 100 µM | 786-0 > 100 µM | HOP-92 > 100 µM | TK-10 > 100 µM | Malme-3M > 100 µM

Cc1c2c(n3c(nc4ccccc43)c1C#N)N(c1ccc(Cl)cc1)CC2
inactive: HCC 2998 > 100 µM | A549 > 100 µM | SW-620 > 100 µM | SNB-75 > 100 µM | Hs-578T > 100 µM | A498 > 100 µM | HCT-116 > 100 µM | SF-539 > 100 µM | HOP-62 > 100 µM | UACC-257 > 100 µM | SNB-19 > 100 µM | OVCAR-8 > 100 µM | DU-145 > 100 µM | SK-OV-3 96.4 µM | 786-0 > 100 µM | HOP-92 > 100 µM | TK-10 > 100 µM | Malme-3M > 100 µM

CN1C(=O)C(CC(=O)O)NC1=S (configuration not stated)
inactive: HCC 2998 > 100 µM | A549 > 100 µM | SW-620 > 100 µM | SNB-75 > 100 µM | Hs-578T > 100 µM | A498 > 100 µM | HCT-116 95.5 µM | SF-539 > 100 µM | HOP-62 > 100 µM | UACC-257 > 100 µM | SNB-19 > 100 µM | OVCAR-8 > 100 µM | KM12 > 100 µM | MOLT-4 > 100 µM | DU-145 > 100 µM | SK-OV-3 > 100 µM | 786-0 > 100 µM | HOP-92 > 100 µM | TK-10 > 100 µM | Malme-3M > 100 µM

C=CC(C)CCC(C/C=C(\C)CCC=C(C)C)C(=C)CCCC(C)C (configuration not stated)
inactive: HCC 2998 > 100 µM | A549 > 100 µM | SW-620 > 100 µM | SNB-75 > 100 µM | Hs-578T > 100 µM | A498 > 100 µM | HCT-116 > 100 µM | SF-539 > 100 µM | HOP-62 > 100 µM | UACC-257 > 100 µM | SNB-19 > 100 µM | OVCAR-8 > 100 µM | KM12 > 100 µM | MOLT-4 > 100 µM | DU-145 > 100 µM | SK-OV-3 > 100 µM | 786-0 > 100 µM | HOP-92 > 100 µM | TK-10 > 100 µM | Malme-3M > 100 µM

CN(Cc1cc(Br)cc(Br)c1O)Cc1c(O)ccc2ccccc12
inactive: HCC 2998 17.1 µM | A549 17.7 µM | SW-620 32 µM | SNB-75 19.1 µM | Hs-578T 33.1 µM | A498 20 µM | HCT-116 16.7 µM | SF-539 16.1 µM | HOP-62 18.7 µM | UACC-257 17.3 µM | SNB-19 17.2 µM | OVCAR-8 23.8 µM | KM12 17.2 µM | MOLT-4 10.4 µM | DU-145 21.1 µM | SK-OV-3 19.6 µM | 786-0 16.7 µM | HOP-92 19.1 µM | TK-10 17.4 µM | Malme-3M 21.7 µM

O=C1C(Cl)=C(Cl)C(Cl)(Cl)C(Cl)C1(Cl)Cl (configuration not stated)
inactive: HCC 2998 17.3 µM | A549 20.9 µM | SW-620 22 µM | SNB-75 21.5 µM | Hs-578T 21.3 µM | A498 15.2 µM | HCT-116 18.8 µM | SF-539 17.5 µM | HOP-62 23.4 µM | UACC-257 18.4 µM | SNB-19 22.4 µM | OVCAR-8 32.2 µM | KM12 20.1 µM | DU-145 27.4 µM | SK-OV-3 26.2 µM | 786-0 37.8 µM | HOP-92 16.9 µM | TK-10 19.5 µM | Malme-3M 18.8 µM

CN1C(c2ccccc2)CC(=NOCc2ccccc2)CC1c1ccccc1 (configuration not stated)
inactive: HCC 2998 > 71.9 µM | A549 20.7 µM | SW-620 28.1 µM | SNB-75 31.4 µM | Hs-578T 36 µM | A498 44.7 µM | HCT-116 18.5 µM | SF-539 36.9 µM | HOP-62 49.5 µM | UACC-257 64.7 µM | SNB-19 44.3 µM | OVCAR-8 21.5 µM | KM12 21.9 µM | MOLT-4 23.7 µM | DU-145 47.6 µM | SK-OV-3 75 µM | 786-0 38.9 µM | HOP-92 48.9 µM | TK-10 46.9 µM | Malme-3M 50.9 µM

C[n+]1c(-c2ccc(/C=N\NC(=O)c3ccc(C(=O)N/N=C/c4ccc(-c5cn6ccsc6[n+]5C)cc4)cc3)cc2)cn2ccsc21
inactive: HCC 2998 34 µM | A549 24.5 µM | SW-620 18.5 µM | SNB-75 23.3 µM | Hs-578T 19.9 µM | A498 17.3 µM | SF-539 23.6 µM | HOP-62 17.9 µM | UACC-257 21.7 µM | SNB-19 24.6 µM | OVCAR-8 14.8 µM | KM12 23 µM | MOLT-4 15.2 µM | DU-145 18.5 µM | SK-OV-3 46.5 µM | 786-0 16.6 µM | HOP-92 14.8 µM | TK-10 19.9 µM | Malme-3M 21 µM
